Results published in patent US9464064B2, “HCV helicase inhibitors and methods of use thereof” (University of Kansas, priority 2011, dated 2016).

Biological target: T1, HCV NS3 helicase NS3h_1b(con1) (Hepatitis C virus genotype 1b, UniProt Q9WMX2)
T1 construct: truncated C-terminally His-tagged NS3 proteins lacking the N-terminal protease, called NS3h; His-tag (C); made in house
Assay: MBHA screen of NCI mechanistic set library at 20 μM (percent inhibition, compound interference)
Type: biochemical
Conditions: compounds at 20 μM; for Inh. (%) (Inhibition): calculated from Equation 1
In short: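 Molecular beacon-based DNA unwinding assay; compounds screened at 20 μM in triplicate, with DMSO-only negative and 500 nM dT20 positive controls. Fluorescence (ex 643/em 670 nm) was read before and 30 min after adding ATP to 1 mM. Percent inhibition came from the change relative to DMSO controls; interference from pre-ATP fluorescence versus DMSO controls.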

[1] = assay interference calculated with Equation 2 (fluorescence vs DMSO-only controls before ATP)
[2] = MBHA with DNA substrate, assay interference calculated with Equation 2

T1 sequence (Q9WMX2 1192-1657): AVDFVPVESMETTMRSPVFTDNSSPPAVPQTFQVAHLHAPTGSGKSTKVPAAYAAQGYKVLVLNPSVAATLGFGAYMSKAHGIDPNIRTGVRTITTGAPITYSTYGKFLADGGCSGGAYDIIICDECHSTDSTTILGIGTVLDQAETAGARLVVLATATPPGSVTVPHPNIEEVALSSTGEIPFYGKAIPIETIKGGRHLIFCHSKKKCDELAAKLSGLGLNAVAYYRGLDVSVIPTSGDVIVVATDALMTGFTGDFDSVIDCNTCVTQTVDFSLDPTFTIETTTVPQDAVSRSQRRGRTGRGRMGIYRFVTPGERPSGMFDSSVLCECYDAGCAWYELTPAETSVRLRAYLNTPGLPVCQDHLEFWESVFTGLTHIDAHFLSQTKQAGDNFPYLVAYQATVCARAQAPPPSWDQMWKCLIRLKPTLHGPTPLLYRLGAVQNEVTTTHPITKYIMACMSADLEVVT

| SMILES | Inh. (%) (Inhibition) (MBHA with a DNA substrate) | Int.* (Ratio) (Interference) [1] | Int.* (Ratio) (Interference) [2] | Inh. (%) (Inhibition) (MBHA with DNA substrate) |
| --- | --- | --- | --- | --- |
| O=C(C=C1SCCS1)/C=C\c1ccc(Cl)cc1 [Compound 648320] | −32.6% | 1.08 Ratio | – | – |
| COc1cc(CC(=O)c2cc3c(cc2-c2ccccc2)OCO3)cc(OC)c1OC [Compound 648419] | 8.6% | 0.90 Ratio | – | – |
| COc1cc(/C=C(\C)c2ccc3c(c2)OCO3)cc(OC)c1OC [Compound 648422] | – | – | 1.02 Ratio | −17.5% |
| Cc1nc2c(o1)C(=O)c1ccccc1C2=Nc1ccccc1 [Compound 650573] | – | – | 0.86 Ratio | −14.3% |
| Cc1ccc(S(=O)(=O)N2CCSCCSCCSCCSCC2)cc1 [Compound 650792] | – | – | 0.86 Ratio | −1.2% |
| CCC(=O)OC1CCn2c1nc1c2C(=O)C(C)=C(N2CC2)C1=O (stereo not drawn) [Compound 651079] | – | – | 1.05 Ratio | −16.7% |
| CC1=C(N2CC2)C(=O)c2nc3n(c2C1=O)CCC3OC(=O)CCl (stereo not drawn) [Compound 651080] | −4.4% | 0.85 Ratio | – | – |
| COCC(=O)OC1CCn2c1nc1c2C(=O)C(C)=C(NC(C)=O)C1=O (stereo not drawn) [Compound 651084] | 8.1% | 0.95 Ratio | – | – |
| COc1ccc(/C=C2/C(=O)N(C(=O)c3ccccc3O)N=C2C)cc1 [Compound 652174] | – | – | 0.87 Ratio | 33.4% |
| OCc1ccc(-c2ccc(-c3ccc(CO)s3)o2)s1 [Compound 652287] | −5.4% | 0.98 Ratio | – | – |
| OCCNCN(CNCCO)c1nc(N(CNCCO)CNCCO)nc(N(CNCCO)CNCCO)n1 [Compound 653000] | – | – | 0.97 Ratio | 1.2% |
| Cc1cc(=O)[nH]c(NN2C(Cl)C(=O)C2c2cccc([N+](=O)[O-])c2)n1 (stereo not drawn) [Compound 653010] | – | – | 0.88 Ratio | 17.5% |
| Cc1cc(=O)[nH]c(NN2C(Cl)C(=O)C2c2cccc(Cl)c2)n1 (stereo not drawn) [Compound 653012] | – | – | 0.91 Ratio | 17.7% |
| Cc1cc(=O)[nH]c(NN2C(Cl)C(=O)C2c2c(O)ccc3ccccc23)n1 (stereo not drawn) [Compound 653016] | −40.6% | 1.02 Ratio | – | – |
| C[CH2][Ge]([CH2]C)([CH2]C)[O]C(=O)CCC(=O)[O][Ge]([CH2]C)([CH2]C)[CH2]C [Compound 653558] | −3.1% | 0.98 Ratio | – | – |
| Cc1cc(NC(=O)NC(=O)c2ccccc2NC(=O)CN)ccc1Oc1ncc(Br)cn1.Cl [Compound 654259] | – | – | 0.98 Ratio | 1.1% |
| COC(=O)c1ccc(NCc2cc(O)ccc2O)cc1 [Compound 654705] | −6.0% | 1.02 Ratio | – | – |
| CCN1CCC(O)(/C=C/c2ccc(C)cc2)C(C(=O)/C=C/c2ccc(C)cc2)C1.Cl (stereo not drawn) [Compound 657298] | – | – | 1.01 Ratio | −17.3% |
| COc1ccccc1/C=C1\Sc2scc(-c3cccc([N+](=O)[O-])c3)[n+]2C1=O [Compound 657446] | −21.5% | 1.00 Ratio | – | – |
| Cc1cc(O)c(/C=N/C(N)=S)c(=O)o1 [Compound 657449] | −25.4% | 1.00 Ratio | – | – |
| Oc1[nH]c2ccccc2c1N=Nc1nc(-c2ccc(Br)cc2)cs1 [Compound 657456] | −6.1% | 0.85 Ratio | – | – |
| COc1cc(/C=C2\S/C(=N/Nc3nc(-c4ccc(Br)cc4)cs3)NC2=O)cc(OC)c1OC [Compound 657457] | – | – | 1.06 Ratio | −14.5% |
| O=C1/C(=C/c2ccc([N+](=O)[O-])cc2)Sc2scc(-c3cccc([N+](=O)[O-])c3)[n+]21.[Cl-] [Compound 657598] | – | – | 0.94 Ratio | −14.8% |
| CCCn1c(=O)c2ccccc2[n+]2c(-c3ccc([N+](=O)[O-])cc3)csc12.[Br-] [Compound 657603] | – | – | 0.94 Ratio | −15.1% |
| Cc1cccc(C)c1NC(=O)C(=O)C(c1ccccc1Cl)S(=O)(=O)Cc1ccccc1Cl (stereo not drawn) [Compound 657722] | 9.1% | 0.93 Ratio | – | – |
| COc1ccc(CCN(C)CCCC(C#N)(c2ccc(OC)c(OC)c2)C(C)C)cc1OC.Cl (stereo not drawn) [Compound 657799] | – | – | 0.98 Ratio | 5.8% |
| O=[N+]([O-])c1ccc2c(c1)/C(=N/N=C1c3ccccc3Cc3ccccc31)c1cc([N+](=O)[O-])cc([N+](=O)[O-])c1-2 [Compound 658139] | – | – | 1.06 Ratio | −14.6% |
